Assay results published in patent US12037324B2, “Biarylmethyl heterocycles” (Université de Montréal, priority 2016, dated 2024).

Experiments:
[1] = target: T1, hAT1R (Homo sapiens, UniProt P30556); experiment: cell-based; conditions: section of the 42nd table ending at r951, example numbering restarts after the DiscoveRx section; read-out: β-arrestin2 EC50
T1 sequence (P30556 1-359): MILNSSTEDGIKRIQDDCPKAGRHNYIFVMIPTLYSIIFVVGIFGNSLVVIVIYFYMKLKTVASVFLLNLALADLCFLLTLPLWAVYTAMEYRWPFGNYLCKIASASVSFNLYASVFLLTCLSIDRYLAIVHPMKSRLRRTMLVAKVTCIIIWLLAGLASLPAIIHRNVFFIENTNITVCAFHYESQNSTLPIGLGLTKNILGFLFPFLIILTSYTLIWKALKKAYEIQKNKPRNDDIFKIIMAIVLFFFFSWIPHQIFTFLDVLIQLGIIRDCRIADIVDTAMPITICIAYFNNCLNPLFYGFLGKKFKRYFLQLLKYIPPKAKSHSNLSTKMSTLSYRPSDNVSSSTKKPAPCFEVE

[2] = target: T1, hAT1R; experiment: BRET β-arrestin2 biosensor assay, higher receptor expression (hAT1R 5 ng/well), HEK293 cells; format: cell-based; conditions: for EC50: High AT1R Expression
[3] = target: T2, AGTR1 (Homo sapiens, UniProt P30556); experiment: DiscoveRx β-arrestin2 recruitment assay (enzyme complementation, Pathunter CHO-K1 AGTR1 β-arrestin cell line); format: cell-based; conditions: DiscoveRx β-arrestin2 recruitment
T2 construct: host or cells: Pathunter CHO-K1 AGTR1 β-arrestin cell line (CHO-K1)
T2 sequence (P30556 1-359): T1 sequence (P30556 1-359)
Summary of the method: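 Chemiluminescent enzyme-complementation read-out of β-arrestin2 recruitment to AGTR1 in engineered CHO-K1 cells after 90 min compound exposure at 37° C. Values are 4-parameter logistic EC50s in agonist mode, IC50s in antagonist mode, with efficacy relative to the maximal All response.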

[4] = target: T1, hAT1R; experiment: cell-based; conditions: agonist mode; for EC50: read-out: BRET P63 EC50
[5] = target: T1, hAT1R; experiment: BRET Gq biosensor assay, agonist response, HEK293 cells; format: cell-based; conditions: section of the 42nd table directly before the BRET P63 section
Summary of the method: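 Agonist EC50 derived from a 4-parameter fit of BRET2 ratio (GFP 515 nm/Rluc 410 nm), scaled between unstimulated control and maximal AngII response. Readings taken 5 min after compound addition at room temperature, with 2 μM coelenterazine, in HEK293 cells expressing hAT1R, Gαq-Rluc, Gβ1 and GFP-Gγ1 (transfected two days earlier).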

## CCCCc1nc(Cl)c(C(=O)O)n1Cc1ccc(-c2cc(-c3cn(C(C)C)nc3C(F)(F)F)ccc2-c2nn[nH]n2)cc1 [Example 388]
[1]
  EC50: 26.7 nM
[2]
  BRET β-Arrestin2 High AT1R Expression Ymax (%): 96.2%
  EC50: 4.6 nM
[3]
  EC50: 44.7 nM
[3]; maximal response
  DiscoveRx β-arrestin2 Ymax (%): 71.7%
[4]
  BRET P63 Ymax: 30.4%
  EC50: 39.8 nM
[5]
  EC50: 810 nM

## CCCc1nc(CC)c(C(=O)O)n1Cc1ccc(-c2cc(-c3ccccc3)ccc2-c2nn[nH]n2)cc1 [Example 396, 1-((6′-(2H-tetrazol-5-yl)-[1,1′:3′,1″-terphenyl]-4-yl)methyl)-4-ethyl-2-propyl-1H-imidazole-5-carboxylic acid]
[1]
  EC50: 14.1 nM
[2]
  BRET β-Arrestin2 High AT1R Expression Ymax (%): 88.8%
  EC50: 6.4 nM
[3]
  EC50: 5 nM
[3]; maximal response
  DiscoveRx β-arrestin2 Ymax (%): 57.8%
[4]
  EC50: > 100000 nM
[5]
  EC50: 274 nM

## CCCCc1nc(Cl)c(C(=O)O)n1Cc1ccc(-c2cc(C3CCCCC3)ccc2-c2nn[nH]n2)cc1 [Example 424, 2-butyl-4-chloro-1-((5′-cyclohexyl-2′-(2H-tetrazol-5-yl)-[1,1′-biphenyl]-4-yl)methyl)-1H-imidazole-5-carboxylic acid]
[1]
  EC50: 35.3 nM
[2]
  BRET β-Arrestin2 High AT1R Expression Ymax (%): 76.7%
  EC50: 67.8 nM
[3]
  EC50: 99.3 nM
[3]; maximal response
  DiscoveRx β-arrestin2 Ymax (%): 28.6%
[4]
  EC50: > 100000 nM
[5]
  EC50: 2790 nM

## CCCCc1nc(Cl)c(C(=O)O)n1Cc1ccc(-c2cc(-c3ccccc3)ccc2-c2nn[nH]n2)cc1 [Example 384, 1-((6′-(2H-tetrazol-5-yl)-[1,1′:3′,1″-terphenyl]-4-yl)methyl)-2-butyl-4-chloro-1H-imidazole-5-carboxylic acid]
[1]
  EC50: 10.8 nM
[2]
  BRET β-Arrestin2 High AT1R Expression Ymax (%): 83.8%
  EC50: 6.9 nM
[3]
  EC50: 8 nM
[3]; maximal response
  DiscoveRx β-arrestin2 Ymax (%): 49.3%
[4]
  EC50: > 10000 nM
[5]
  EC50: 39.1 nM

## CCCCC(=O)N(Cc1ccc(-c2cc(-c3cc(C)ccn3)ccc2-c2nn[nH]n2)cc1)[C@H](C(=O)O)C(C)C [Example 445]
[1]
  EC50: 36 nM
[2]
  BRET β-Arrestin2 High AT1R Expression Ymax (%): 91.3%
  EC50: 9.8 nM
[3]
  DiscoveRx β-arrestin2 Ymax (%): 61.2%
  EC50: 37.7 nM
[4]
  BRET P63 Ymax: 24.0%
  EC50: 103 nM
[5]
  EC50: 140 nM

## CCOc1nc2cccc(C(=O)O)c2n1Cc1ccc(-c2cc(-c3cccc(C)c3)ccc2C(=O)O)cc1 [Example 313, 1-((6′-carboxy-3″-methyl-[1,1′:3′,1″-terphenyl]-4-yl)methyl)-2-ethoxy-1H-benzo[d]imidazole-7-carboxylic acid]
[1]
  EC50: 21.5 nM
[2]
  BRET β-Arrestin2 High AT1R Expression Ymax (%): 92.9%
  EC50: 7.7 nM
[3]
  EC50: 28.1 nM
[3]; maximal response
  DiscoveRx β-arrestin2 Ymax (%): 46.1%
[4]
  BRET P63 Ymax: 6.3%
  EC50: 46.7 nM
[5]
  EC50: 82.1 nM

## CCOc1nc2cccc(C(=O)O)c2n1Cc1ccc(-c2cc(-c3ccccc3)ccc2C(=O)O)cc1 [Example 314, 1-((6′-carboxy-[1,1′:3′,1″-terphenyl]-4-yl)methyl)-2-ethoxy-1H-benzo[d]imidazole-7-carboxylic acid]
[1]
  EC50: 36.6 nM
[2]
  BRET β-Arrestin2 High AT1R Expression Ymax (%): 90.3%
  EC50: 5.8 nM
[3]
  EC50: 3.5 nM
[3]; maximal response
  DiscoveRx β-arrestin2 Ymax (%): 66.8%
[4]
  BRET P63 Ymax: 12.8%
  EC50: 67.8 nM
[5]
  EC50: 129 nM

## CCOc1nc2cccc(C(=O)O)c2n1Cc1ccc(-c2cc(-c3ccccc3)ccc2-c2nn[nH]n2)cc1 [Example 312, 1-((6′-(2H-tetrazol-5-yl)-[1,1′:3′,1″-terphenyl]-4-yl)methyl)-2-ethoxy-1H-benzo[d]imidazole-7-carboxylic acid]
[1]
  EC50: 5.8 nM
[2]
  BRET β-Arrestin2 High AT1R Expression Ymax (%): 91.8%
  EC50: 2.6 nM
[3]
  EC50: 22.5 nM
[3]; maximal response
  DiscoveRx β-arrestin2 Ymax (%): 79.9%
[4]
  BRET P63 Ymax: 9.4%
  EC50: 17.2 nM
[5]
  EC50: 20.7 nM

## CCOc1nc2cccc(C(=O)O)c2n1Cc1ccc(-c2cc(-c3c[nH]c4ccccc34)ccc2-c2noc(=O)[nH]2)cc1 [Example 322]
[1]
  EC50: 9.7 nM
[2]
  BRET β-Arrestin2 High AT1R Expression Ymax (%): 80.9%
  EC50: 8.4 nM
[3]
  EC50: 39.2 nM
[3]; maximal response
  DiscoveRx β-arrestin2 Ymax (%): 33.7%
[4]
  BRET P63 Ymax: 5.1%
  EC50: 53.7 nM
[5]
  EC50: 93.3 nM

## CCCCc1nc(Cl)c(C(=O)O)n1Cc1ccc(-c2cc(-c3ccc(C(=O)N(C)C)cc3)ccc2-c2nn[nH]n2)cc1 [Example 390]
[1]
  EC50: 97 nM
[2]
  BRET β-Arrestin2 High AT1R Expression Ymax (%): 95.3%
  EC50: 24.4 nM
[3]
  EC50: 11.8 nM
[3]; maximal response
  DiscoveRx β-arrestin2 Ymax (%): 53.5%
[4]
  BRET P63 Ymax: 11.9%
  EC50: 127 nM
[5]
  EC50: 23.7 nM

## CCCCc1nc(Cl)c(C(=O)O)n1Cc1ccc(-c2cc(-c3ccccc3)ccc2-c2noc(=O)[nH]2)cc1 [Example 404, 2-butyl-4-chloro-1-((6′-(5-oxo-4,5-dihydro-1,2,4-oxadiazol-3-yl)-[1,1′:3′,1″-terphenyl]-4-yl)methyl)-1H-imidazole-5-carboxylic acid]
[1]
  EC50: 69.4 nM
[2]
  BRET β-Arrestin2 High AT1R Expression Ymax (%): 89.7%
  EC50: 14.3 nM
[3]
  EC50: 9.6 nM
[3]; maximal response
  DiscoveRx β-arrestin2 Ymax (%): 38.6%
[4]
  EC50: > 10000 nM
[5]
  EC50: 70.4 nM

## CCCCc1nc(Cl)c(C(=O)O)n1Cc1ccc(-c2cc(-c3ccccc3)ccc2C(=O)O)cc1 [Example 410, 2-butyl-1-((6′-carboxy-[1,1′:3′,1″-terphenyl]-4-yl)methyl)-4-chloro-1H-imidazole-5-carboxylic acid]
[1]
  EC50: 98.2 nM
[2]
  BRET β-Arrestin2 High AT1R Expression Ymax (%): 69.7%
  EC50: 82.1 nM
[3]
  EC50: 26.9 nM
[3]; maximal response
  DiscoveRx β-arrestin2 Ymax (%): 41.9%
[4]
  EC50: > 10000 nM
[5]
  EC50: > 100000 nM
